# Assay results: paper PMC7026418, “The kinase polypharmacology landscape of clinical PARP inhibitors” (Scientific Reports, 2020)
# Read-outs that look alike come from different tables or passages of the source.
# Tests used:
# Experiment in all cases: biochemical
# Set-up in all cases: DiscoveRx KINOMEscan active site-directed competition binding; percent of control kinase bound to immobilised ligand
# CDK8 = CDK8 (Homo sapiens, UniProt P49336)
# SBK1 = SBK1 (Homo sapiens, UniProt Q52WX2)
# [1] = target: T1, ABL1(H396P)-nonphosphorylated (Homo sapiens, UniProt P00519, H396P)
# T1 construct: nonphosphorylated
# CLK2 = CLK2 (Homo sapiens, UniProt P49760)
# Chain of CLK2 (P49760 whole entry): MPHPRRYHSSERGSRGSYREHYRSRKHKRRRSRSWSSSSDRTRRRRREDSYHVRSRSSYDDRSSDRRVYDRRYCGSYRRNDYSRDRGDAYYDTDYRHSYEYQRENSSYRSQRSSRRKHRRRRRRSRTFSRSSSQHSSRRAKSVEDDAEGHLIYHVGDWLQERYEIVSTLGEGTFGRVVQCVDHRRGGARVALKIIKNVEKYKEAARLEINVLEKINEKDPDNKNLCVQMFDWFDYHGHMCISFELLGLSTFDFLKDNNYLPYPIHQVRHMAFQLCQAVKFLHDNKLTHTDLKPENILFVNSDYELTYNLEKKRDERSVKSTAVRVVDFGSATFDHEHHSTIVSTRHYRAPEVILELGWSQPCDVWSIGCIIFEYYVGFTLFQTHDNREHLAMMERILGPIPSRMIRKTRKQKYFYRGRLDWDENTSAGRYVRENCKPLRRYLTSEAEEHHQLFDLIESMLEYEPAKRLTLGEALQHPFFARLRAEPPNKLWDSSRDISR
# CSNK1E = CSNK1E (Homo sapiens, UniProt P49674)
# TGFBR2 = TGFBR2 (Homo sapiens, UniProt P37173)
# Chain of TGFBR2 (P37173 whole entry): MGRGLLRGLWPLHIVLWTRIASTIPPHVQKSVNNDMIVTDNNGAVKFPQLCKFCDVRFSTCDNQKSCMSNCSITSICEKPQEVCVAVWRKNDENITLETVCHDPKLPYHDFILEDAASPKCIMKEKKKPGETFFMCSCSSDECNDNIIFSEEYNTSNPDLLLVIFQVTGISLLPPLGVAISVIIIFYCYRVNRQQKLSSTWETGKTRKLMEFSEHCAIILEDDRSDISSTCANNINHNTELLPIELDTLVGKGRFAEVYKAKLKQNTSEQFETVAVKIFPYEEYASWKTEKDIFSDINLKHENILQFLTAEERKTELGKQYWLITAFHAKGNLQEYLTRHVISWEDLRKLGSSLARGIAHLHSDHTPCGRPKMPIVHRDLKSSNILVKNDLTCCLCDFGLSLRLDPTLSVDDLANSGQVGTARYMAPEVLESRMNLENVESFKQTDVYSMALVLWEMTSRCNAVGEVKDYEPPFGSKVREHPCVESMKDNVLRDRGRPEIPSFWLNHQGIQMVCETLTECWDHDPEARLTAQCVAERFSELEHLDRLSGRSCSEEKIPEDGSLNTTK
# HIPK3 = HIPK3 (Homo sapiens, UniProt Q9H422)
# Chain of HIPK3 (Q9H422 whole entry): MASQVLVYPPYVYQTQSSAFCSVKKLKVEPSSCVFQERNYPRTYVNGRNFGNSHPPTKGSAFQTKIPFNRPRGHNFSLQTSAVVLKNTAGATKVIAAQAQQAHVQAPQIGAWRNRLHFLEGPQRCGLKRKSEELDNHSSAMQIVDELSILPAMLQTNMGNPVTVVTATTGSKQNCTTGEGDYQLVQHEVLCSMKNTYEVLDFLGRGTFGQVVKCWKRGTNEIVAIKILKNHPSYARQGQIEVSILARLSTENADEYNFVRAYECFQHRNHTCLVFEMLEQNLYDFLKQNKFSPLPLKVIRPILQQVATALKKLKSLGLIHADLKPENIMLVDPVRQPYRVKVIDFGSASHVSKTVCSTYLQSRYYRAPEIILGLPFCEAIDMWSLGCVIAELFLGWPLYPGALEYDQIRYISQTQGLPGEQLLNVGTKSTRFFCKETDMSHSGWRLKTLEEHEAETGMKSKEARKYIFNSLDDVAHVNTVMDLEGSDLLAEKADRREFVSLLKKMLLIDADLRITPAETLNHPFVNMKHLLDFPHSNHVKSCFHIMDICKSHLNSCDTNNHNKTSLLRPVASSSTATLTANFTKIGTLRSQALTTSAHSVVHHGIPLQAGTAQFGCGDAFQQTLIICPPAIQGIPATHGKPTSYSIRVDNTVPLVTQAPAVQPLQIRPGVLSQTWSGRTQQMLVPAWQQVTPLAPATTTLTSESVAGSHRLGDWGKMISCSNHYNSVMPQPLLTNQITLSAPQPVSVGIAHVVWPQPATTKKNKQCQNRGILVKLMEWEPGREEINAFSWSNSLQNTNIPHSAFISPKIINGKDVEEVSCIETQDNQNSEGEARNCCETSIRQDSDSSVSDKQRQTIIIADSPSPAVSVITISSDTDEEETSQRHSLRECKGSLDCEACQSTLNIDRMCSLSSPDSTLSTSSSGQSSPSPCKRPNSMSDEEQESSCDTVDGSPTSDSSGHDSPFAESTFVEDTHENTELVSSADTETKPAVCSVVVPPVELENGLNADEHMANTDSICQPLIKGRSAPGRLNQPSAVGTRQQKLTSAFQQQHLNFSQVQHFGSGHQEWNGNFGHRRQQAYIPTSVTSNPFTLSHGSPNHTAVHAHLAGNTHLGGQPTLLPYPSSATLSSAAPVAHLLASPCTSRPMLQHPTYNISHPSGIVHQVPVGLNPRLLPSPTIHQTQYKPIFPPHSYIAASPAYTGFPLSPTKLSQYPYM
# PAK1 = PAK1 (Homo sapiens, UniProt Q13153)
# Chain of PAK1 (Q13153 whole entry): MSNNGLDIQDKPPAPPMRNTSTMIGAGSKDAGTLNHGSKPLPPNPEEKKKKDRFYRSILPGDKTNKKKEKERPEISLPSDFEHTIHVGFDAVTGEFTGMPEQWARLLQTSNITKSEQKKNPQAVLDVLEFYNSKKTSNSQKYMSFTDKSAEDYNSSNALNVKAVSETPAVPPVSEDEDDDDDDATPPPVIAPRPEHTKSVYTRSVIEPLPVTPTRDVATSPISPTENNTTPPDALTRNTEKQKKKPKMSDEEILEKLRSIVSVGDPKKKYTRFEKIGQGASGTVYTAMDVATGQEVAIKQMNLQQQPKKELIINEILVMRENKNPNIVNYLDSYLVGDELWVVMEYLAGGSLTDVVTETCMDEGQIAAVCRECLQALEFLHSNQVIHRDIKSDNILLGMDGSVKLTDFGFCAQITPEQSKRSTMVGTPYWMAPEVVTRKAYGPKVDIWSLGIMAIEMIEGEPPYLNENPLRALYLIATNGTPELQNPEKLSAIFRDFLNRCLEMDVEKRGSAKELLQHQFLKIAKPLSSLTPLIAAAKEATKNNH
# FLT3(D835V) = target: T2, FLT3(D835V) (Homo sapiens, UniProt P36888, D835V)
# T2 sequence (P36888 1-993 D835V): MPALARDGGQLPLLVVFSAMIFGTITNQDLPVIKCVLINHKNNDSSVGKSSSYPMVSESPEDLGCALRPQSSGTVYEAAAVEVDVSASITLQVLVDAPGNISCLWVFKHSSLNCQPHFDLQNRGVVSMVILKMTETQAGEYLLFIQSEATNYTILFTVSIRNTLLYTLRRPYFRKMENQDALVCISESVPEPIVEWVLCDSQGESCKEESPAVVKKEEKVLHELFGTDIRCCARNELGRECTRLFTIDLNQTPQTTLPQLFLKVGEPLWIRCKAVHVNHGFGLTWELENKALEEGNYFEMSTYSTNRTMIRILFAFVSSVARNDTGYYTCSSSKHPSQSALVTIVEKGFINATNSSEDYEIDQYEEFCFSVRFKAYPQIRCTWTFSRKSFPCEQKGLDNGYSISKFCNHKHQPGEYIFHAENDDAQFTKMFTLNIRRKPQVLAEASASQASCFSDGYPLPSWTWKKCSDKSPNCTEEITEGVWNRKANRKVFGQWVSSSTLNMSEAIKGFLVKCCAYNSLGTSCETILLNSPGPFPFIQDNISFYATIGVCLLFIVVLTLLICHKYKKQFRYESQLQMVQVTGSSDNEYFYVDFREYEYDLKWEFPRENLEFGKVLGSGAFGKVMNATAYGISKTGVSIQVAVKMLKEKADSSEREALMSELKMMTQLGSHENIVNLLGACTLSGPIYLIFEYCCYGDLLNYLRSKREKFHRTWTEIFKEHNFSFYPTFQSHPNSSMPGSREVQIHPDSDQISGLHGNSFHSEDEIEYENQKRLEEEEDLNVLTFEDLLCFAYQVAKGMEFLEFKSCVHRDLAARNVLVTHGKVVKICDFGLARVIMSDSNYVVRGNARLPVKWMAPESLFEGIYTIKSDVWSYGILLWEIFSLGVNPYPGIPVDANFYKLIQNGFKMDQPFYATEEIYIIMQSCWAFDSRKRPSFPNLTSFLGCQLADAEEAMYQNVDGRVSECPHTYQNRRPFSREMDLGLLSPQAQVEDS
# DCAMKL1 = target: T3, DCAMKL1 (Homo sapiens, UniProt O15075)
# T3 construct: gene DCLK1
# T3 sequence (O15075 1-740): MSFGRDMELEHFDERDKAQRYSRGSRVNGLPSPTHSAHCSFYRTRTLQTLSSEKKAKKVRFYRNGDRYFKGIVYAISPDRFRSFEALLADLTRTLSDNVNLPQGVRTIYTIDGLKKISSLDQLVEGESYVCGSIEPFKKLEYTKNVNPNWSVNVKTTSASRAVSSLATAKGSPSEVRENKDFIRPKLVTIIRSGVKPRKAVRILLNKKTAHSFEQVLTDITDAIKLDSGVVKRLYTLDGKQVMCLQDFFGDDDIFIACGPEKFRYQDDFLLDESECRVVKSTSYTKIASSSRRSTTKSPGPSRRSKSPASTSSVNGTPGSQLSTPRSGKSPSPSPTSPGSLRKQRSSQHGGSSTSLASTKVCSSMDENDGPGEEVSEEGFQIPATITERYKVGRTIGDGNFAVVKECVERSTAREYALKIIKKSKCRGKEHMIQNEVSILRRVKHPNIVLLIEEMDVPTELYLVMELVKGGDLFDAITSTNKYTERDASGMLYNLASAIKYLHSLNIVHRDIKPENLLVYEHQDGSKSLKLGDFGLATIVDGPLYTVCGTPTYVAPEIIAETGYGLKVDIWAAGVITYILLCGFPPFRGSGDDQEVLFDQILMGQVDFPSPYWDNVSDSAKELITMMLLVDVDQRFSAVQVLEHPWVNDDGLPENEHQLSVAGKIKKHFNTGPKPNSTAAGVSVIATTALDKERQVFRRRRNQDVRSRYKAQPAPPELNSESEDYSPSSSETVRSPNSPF
# [2] = target: T4, JAK1(JH2domain-pseudokinase) (Homo sapiens, UniProt P23458)
# T4 construct: JH2domain-pseudokinase
# T4 sequence (P23458 whole entry): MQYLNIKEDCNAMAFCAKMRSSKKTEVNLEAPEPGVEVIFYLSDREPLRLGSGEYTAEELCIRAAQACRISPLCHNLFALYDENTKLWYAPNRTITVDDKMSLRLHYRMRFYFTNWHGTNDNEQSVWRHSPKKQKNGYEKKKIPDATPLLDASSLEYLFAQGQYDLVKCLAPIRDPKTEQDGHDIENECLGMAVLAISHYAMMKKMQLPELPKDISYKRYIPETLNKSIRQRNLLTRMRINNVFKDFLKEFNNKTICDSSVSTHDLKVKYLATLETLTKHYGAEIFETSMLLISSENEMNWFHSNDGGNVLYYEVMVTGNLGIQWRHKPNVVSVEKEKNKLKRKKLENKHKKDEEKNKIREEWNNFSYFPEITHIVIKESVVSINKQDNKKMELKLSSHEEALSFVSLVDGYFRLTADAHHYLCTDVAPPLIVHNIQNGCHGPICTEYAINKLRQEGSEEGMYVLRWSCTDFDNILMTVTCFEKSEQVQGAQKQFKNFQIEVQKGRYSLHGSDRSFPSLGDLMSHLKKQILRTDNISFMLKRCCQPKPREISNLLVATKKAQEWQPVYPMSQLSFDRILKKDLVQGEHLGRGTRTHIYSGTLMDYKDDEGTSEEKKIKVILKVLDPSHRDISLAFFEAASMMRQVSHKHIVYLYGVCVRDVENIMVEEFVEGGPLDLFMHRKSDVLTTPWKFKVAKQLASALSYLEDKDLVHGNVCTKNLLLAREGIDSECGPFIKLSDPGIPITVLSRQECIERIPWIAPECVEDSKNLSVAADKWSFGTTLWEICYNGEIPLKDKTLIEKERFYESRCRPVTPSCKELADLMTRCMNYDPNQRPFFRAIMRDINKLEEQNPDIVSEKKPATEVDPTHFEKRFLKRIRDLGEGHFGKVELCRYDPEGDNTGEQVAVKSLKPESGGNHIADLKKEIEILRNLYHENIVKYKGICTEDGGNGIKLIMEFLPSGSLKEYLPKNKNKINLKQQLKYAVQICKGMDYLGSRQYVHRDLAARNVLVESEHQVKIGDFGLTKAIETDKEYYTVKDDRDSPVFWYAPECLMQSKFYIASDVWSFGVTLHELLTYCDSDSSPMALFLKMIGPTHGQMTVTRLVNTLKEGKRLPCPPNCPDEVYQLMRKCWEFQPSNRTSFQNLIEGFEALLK
# [3] = read-out: Niraparib (MK-4827) / %Ctrl @ 10000nM
# [4] = read-out: Olaparib / %Ctrl @ 10000nM
# [5] = read-out: Rucaparib / %Ctrl @ 10000nM, binding competition, % of control
# [6] = read-out: Talazoparib (BMN 673) / %Ctrl @ 10000nM
# Chain of CDK8 (P49336 whole entry): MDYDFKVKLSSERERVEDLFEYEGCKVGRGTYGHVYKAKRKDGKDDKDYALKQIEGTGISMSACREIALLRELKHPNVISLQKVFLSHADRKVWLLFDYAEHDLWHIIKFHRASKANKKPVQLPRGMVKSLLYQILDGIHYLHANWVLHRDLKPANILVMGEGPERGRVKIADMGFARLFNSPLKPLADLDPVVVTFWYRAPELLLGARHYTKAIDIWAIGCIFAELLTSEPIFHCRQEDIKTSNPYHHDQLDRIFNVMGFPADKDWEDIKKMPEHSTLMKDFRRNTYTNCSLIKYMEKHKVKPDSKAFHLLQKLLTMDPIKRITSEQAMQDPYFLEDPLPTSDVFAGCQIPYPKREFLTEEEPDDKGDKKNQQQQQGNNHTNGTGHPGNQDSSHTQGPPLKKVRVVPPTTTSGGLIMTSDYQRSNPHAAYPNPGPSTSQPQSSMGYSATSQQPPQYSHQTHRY
# Chain of SBK1 (Q52WX2 whole entry): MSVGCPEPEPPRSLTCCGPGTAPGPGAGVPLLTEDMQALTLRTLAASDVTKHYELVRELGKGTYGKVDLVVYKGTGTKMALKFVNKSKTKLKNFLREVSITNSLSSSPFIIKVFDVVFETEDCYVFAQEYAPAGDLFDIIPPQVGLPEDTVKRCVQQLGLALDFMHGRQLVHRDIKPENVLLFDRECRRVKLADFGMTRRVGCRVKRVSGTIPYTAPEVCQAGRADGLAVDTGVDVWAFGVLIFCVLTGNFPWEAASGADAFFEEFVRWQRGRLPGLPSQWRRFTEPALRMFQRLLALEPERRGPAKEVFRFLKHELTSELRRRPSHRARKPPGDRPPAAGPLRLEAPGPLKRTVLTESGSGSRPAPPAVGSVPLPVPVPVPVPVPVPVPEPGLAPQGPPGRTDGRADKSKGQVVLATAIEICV
smiles,measurement,setting,value
NC(=O)c1cccc2cn(-c3ccc([C@@H]4CCCNC4)cc3)nc12 [Niraparib],percent of control binding at 10 µM,CDK8; [3],68%
same,percent of control binding at 10 µM,SBK1; [3],83%
same,percent of control binding at 10 µM,[1]; [3],65%
same,percent of control binding at 10 µM,CLK2; [3],36%
same,percent of control binding at 10 µM,CSNK1E; [3],57%
same,percent of control binding at 10 µM,TGFBR2; [3],92%
same,percent of control binding at 10 µM,HIPK3; [3],2.5%
same,percent of control binding at 10 µM,PAK1; [3],86%
same,percent of control binding at 10 µM,FLT3(D835V); [3],83%
same,percent of control binding at 10 µM,DCAMKL1; [3],89%
O=C(c1cc(Cc2n[nH]c(=O)c3ccccc23)ccc1F)N1CCN(C(=O)C2CC2)CC1 [Olaparib],percent of control binding at 10 µM,CDK8; [4],100%
same,percent of control binding at 10 µM,SBK1; [4],95%
same,percent of control binding at 10 µM,[1]; [4],82%
same,percent of control binding at 10 µM,[2]; [4],91%
same,percent of control binding at 10 µM,CLK2; [4],100%
same,percent of control binding at 10 µM,CSNK1E; [4],90%
same,percent of control binding at 10 µM,TGFBR2; [4],89%
same,percent of control binding at 10 µM,HIPK3; [4],100%
same,percent of control binding at 10 µM,PAK1; [4],91%
same,percent of control binding at 10 µM,FLT3(D835V); [4],100%
same,percent of control binding at 10 µM,DCAMKL1; [4],100%
CNCc1ccc(-c2[nH]c3cc(F)cc4c3c2CCNC4=O)cc1 [Rucaparib],percent of control binding at 10 µM,CDK8; [5],86%
same,percent of control binding at 10 µM,SBK1; [5],65%
same,percent of control binding at 10 µM,[1]; [5],68%
same,percent of control binding at 10 µM,[2]; [5],0.8%
same,percent of control binding at 10 µM,CLK2; [5],32%
same,percent of control binding at 10 µM,CSNK1E; [5],76%
same,percent of control binding at 10 µM,TGFBR2; [5],96%
same,percent of control binding at 10 µM,HIPK3; [5],18%
same,percent of control binding at 10 µM,PAK1; [5],75%
same,Rucaparib / %Ctrl @ 10000nM,"FLT3(D835V); binding competition, % of control",15%
same,percent of control binding at 10 µM,DCAMKL1; [5],78%
Cn1ncnc1[C@H]1c2n[nH]c(=O)c3cc(F)cc(c23)N[C@@H]1c1ccc(F)cc1 [Talazoparib],percent of control binding at 10 µM,CDK8; [6],99%
same,percent of control binding at 10 µM,SBK1; [6],96%
same,percent of control binding at 10 µM,[1]; [6],92%
same,percent of control binding at 10 µM,[2]; [6],73%
same,percent of control binding at 10 µM,CLK2; [6],94%
same,percent of control binding at 10 µM,CSNK1E; [6],69%
same,percent of control binding at 10 µM,TGFBR2; [6],98%
same,percent of control binding at 10 µM,HIPK3; [6],55%
same,percent of control binding at 10 µM,PAK1; [6],93%
same,percent of control binding at 10 µM,FLT3(D835V); [6],100%
same,percent of control binding at 10 µM,DCAMKL1; [6],90%
